Assay results from publication PMC11873037 (Nature Communications, 2025).

Legend:
ChREBPα/14-3-3β [1] = target: T1, ChREBPα/14-3-3β (Homo sapiens, UniProt P31946+Q9NP71); assay: biochemical
T1 sequence (P31946 1-246): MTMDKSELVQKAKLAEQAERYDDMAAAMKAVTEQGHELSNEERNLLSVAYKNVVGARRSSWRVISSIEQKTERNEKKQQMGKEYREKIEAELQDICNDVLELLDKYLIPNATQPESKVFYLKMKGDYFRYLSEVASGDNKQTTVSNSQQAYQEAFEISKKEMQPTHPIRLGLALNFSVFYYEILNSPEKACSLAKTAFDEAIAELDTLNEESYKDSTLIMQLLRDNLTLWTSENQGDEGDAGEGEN
T1 sequence (Q9NP71 117-142 limits assumed): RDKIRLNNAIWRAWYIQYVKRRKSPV

INS-1 cells [2] = assay: cytotoxicity in low glucose; type: cell-based, rat
[3] = tested on: BRAF, CRAF, p65, USP8, ERα, Pin1, ExoS peptides/14-3-3β; assay: FA selectivity studies, statement over all other client peptides; type: binding; settings: up to 100 µM
ChREBPα/14-3-3β [4] = target: T1, ChREBPα/14-3-3β; assay: FA compound titration, stabilization of FITC-ChREBPα peptide/14-3-3β; type: binding; settings: for stabilization of the ChREBPα/14-3-3 PPI, in words: FA-based compound titrations; for EC50: EC50, FITC-ChREBPα peptide 10 nM, 14-3-3β 150 nM, mean ± SD, n = 2
ChREBPα/14-3-3β [5] = target: T1, ChREBPα/14-3-3β; settings: fit of 2D titration with thermodynamic equilibrium model; compound 0–500 µM
human islets, β-cells = assay: SPARKL assay, β-cell death in glucolipotoxicity; type: cell-based; settings: 10 µM; 20 mM glucose+500 μM palmitate
INS-1 cells [6] = assay: cell death in glucolipotoxic conditions; type: cell-based, rat; settings: for cell death in glucolipotoxic conditions, dose response: 5 and 10 μM, 20 mM glucose+500 µM palmitate, 48 h
[7] = tested on: dispersed human islet cells; assay: β-cell death after adenoviral ChREBPβ overexpression or shRNA; type: cell-based; settings: 10 μM 43
ChREBPβ [8] = assay: qPCR ChREBPβ mRNA in human islets; type: cell-based; settings: 10 µM 43, 24 h; high glucose or glucolipotoxicity
ChREBP = target: T2, ChREBP (Rattus norvegicus, UniProt Q8VIP2); assay: CRISPR/Cas9 engineered INS-1 cells; type: cell-based; settings: high glucose and glucolipotoxic conditions
T2 sequence (Q8VIP2 1-865): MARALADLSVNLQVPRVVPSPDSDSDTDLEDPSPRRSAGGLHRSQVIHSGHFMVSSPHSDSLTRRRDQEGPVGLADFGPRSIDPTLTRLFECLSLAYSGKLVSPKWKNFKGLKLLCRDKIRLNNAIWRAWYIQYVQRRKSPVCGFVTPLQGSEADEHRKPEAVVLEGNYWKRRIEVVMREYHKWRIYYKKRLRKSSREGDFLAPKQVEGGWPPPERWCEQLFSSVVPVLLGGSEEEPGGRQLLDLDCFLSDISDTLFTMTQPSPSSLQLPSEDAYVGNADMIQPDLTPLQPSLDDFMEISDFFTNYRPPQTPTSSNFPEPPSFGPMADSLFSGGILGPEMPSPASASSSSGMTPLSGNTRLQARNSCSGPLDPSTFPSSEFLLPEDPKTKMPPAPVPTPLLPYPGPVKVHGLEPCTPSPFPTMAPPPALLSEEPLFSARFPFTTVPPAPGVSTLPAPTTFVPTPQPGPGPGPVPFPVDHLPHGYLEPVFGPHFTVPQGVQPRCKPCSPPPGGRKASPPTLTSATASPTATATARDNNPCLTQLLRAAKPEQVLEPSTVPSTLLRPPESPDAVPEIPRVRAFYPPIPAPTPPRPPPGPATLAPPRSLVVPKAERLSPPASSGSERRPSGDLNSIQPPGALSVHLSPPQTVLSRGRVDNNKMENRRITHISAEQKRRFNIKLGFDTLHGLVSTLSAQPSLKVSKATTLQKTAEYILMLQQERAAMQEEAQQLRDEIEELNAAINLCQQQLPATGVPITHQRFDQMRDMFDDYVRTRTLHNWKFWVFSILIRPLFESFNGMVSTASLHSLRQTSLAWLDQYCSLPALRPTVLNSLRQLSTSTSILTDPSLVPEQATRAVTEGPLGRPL

INS = assay: qPCR INS mRNA in human islets; type: cell-based; settings: 10 µM 43, 24 h
human TXNIP promoter = assay: luciferase reporter driven by the human TXNIP promoter in INS-1 cells; type: cell-based, rat; settings: 10 µM 43, 24 h
PDX1 [9] = assay: qPCR PDX1 mRNA in human islets; type: cell-based; settings: 10 µM 43, 24 h
ChREBPα/14-3-3 = assay: proximity ligation assay ChREBPα and pan 14-3-3; type: cell-based, rat; settings: high (20 mM) glucose
ChREBPα = target: T3, ChREBPα (Rattus norvegicus, UniProt Q8VIP2); assay: immunostaining, nuclear localization of ChREBPα in INS-1 cells; type: cell-based
T3 sequence (Q8VIP2 1-865): T2 sequence (Q8VIP2 1-865)

[10] = tested on: TAZ, ExoS, ERα, CRAF, ChREBP peptides/14-3-3 isoforms (γ, ζ, σ); type: binding; settings: 100 µM 43
INS-1 cells [11] = assay: calcium imaging; type: cell-based, rat
PDX1 [12] = assay: immunostaining PDX1 protein in dispersed islets; type: cell-based, human; settings: 48 h
primary human islets [13] = assay: insulin secretion stimulation index in response to KCl; type: cell-based; settings: 30 mM KCl
INS-1 cells [14] = assay: kinetics of cell proliferation, total cell numbers; type: cell-based, rat; settings: 10 μM 43
primary human islets [15] = assay: glucose-stimulated insulin secretion; type: cell-based; settings: pre-treated 24 h, high glucose
INS-1 cells [16] = assay: ATP/ADP measurements; type: cell-based, rat; settings: 10 μM 43; high (20 mM) glucose
ALDH1A3 = assay: qPCR ALDH1A3 mRNA in human islets; type: cell-based
[17] = tested on: ChREBPα/all seven 14-3-3 isoforms; assay: FA protein titrations, statement over all seven 14-3-3 isoforms; type: binding; settings: 100 µM 43
primary human islets [18] = assay: total insulin content; type: cell-based
NFATC1/14-3-3 = assay: proximity ligation assay NFATC1 and pan 14-3-3; type: cell-based, rat; settings: 10 μM 43; high (20 mM) glucose
ChREBPβ [19] = assay: immunostaining c-term ChREBP; type: cell-based, human; settings: 48 h
[20] = tested on: β-cell maturity markers or glucose sensing and processing genes; assay: qPCR other β-cell maturity markers or glucose sensing and processing genes; type: cell-based, human; settings: 10 µM 43, 24 h

## O=C(COc1ccccc1P(=O)(O)O)NCC(F)(F)c1ccc(F)c(F)c1 [compound 53]
ChREBPα/14-3-3β [1]
  Kd: 110 µM
INS-1 cells [2]
  Cytotoxic in low [glucose]: no cytotoxicity
[3]
  effect on other 14-3-3 client peptides (selectivity): without affecting any other client peptide
ChREBPα/14-3-3β [4]
  Active in biochemical assays: active in biochemical assays
ChREBPα/14-3-3β [5]
  cooperativity factor (α): 126
Human islets, β-cells
  β-cell death in glucolipotoxic conditions, in words: remarkable decrease in β-cell death
INS-1 cells [6]
  Rescue from glucolipotoxicity: protected the β-cells from glucolipotoxicity
  cell death in glucolipotoxic conditions, dose response: significant attenuation of cell death

## O=C(COc1ccccc1B(O)O)NCCc1ccccc1 [compound 23]
ChREBPα/14-3-3β [4]
  stabilization of the ChREBPα/14-3-3 PPI, in words: inactive

## O=C(COc1ccccc1P(=O)(O)O)NCCc1ccc(OCc2cccnc2)cc1 [compound 10]
ChREBPα/14-3-3β [4]
  stabilization of the ChREBPα/14-3-3 PPI, in words: increased the stabilization efficiency

## NS(=O)(=O)c1ccccc1OCC(=O)NCCc1ccccc1 [compound 24]
ChREBPα/14-3-3β [4]
  stabilization of the ChREBPα/14-3-3 PPI, in words: inactive

## O=C(NCCc1ccccc1)C(Oc1ccccc1P(=O)(O)O)c1ccccc1 (stereo not drawn) [compound 12]
INS-1 cells [2]
  Cytotoxic in low [glucose]: neither generally cytotoxic
ChREBPα/14-3-3β [4]
  Active in biochemical assays: not active in the biochemical assay
INS-1 cells [6]
  Rescue from glucolipotoxicity: nor rescued the cells from glucolipotoxicity

## O=C(COc1ccccc1P(=O)(O)O)NCC(F)(F)c1cccc(F)c1 [compound 43]
[7]
  protection from apoptosis due to overexpression of ChREBPβ: unable to protect human islet cells from apoptosis
ChREBPβ [8]
  upregulation of ChREBPβ at mRNA level: prevented upregulation of ChREBPβ
ChREBP
  build up of nuclear ChREBPβ, in words: prevents the built up of nuclear ChREBPβ
ChREBPα/14-3-3β [1]
  Kd: 162 µM
INS
  INS mRNA downregulation (de-differentiation) in glucolipotoxicity: this de-differentiation was prevented
Human TXNIP promoter
  glucose response of the TXNIP gene: prevents the glucose response of the TXNIP gene
PDX1 [9]
  PDX1 mRNA downregulation (de-differentiation) in glucolipotoxicity: this de-differentiation was prevented
ChREBPα/14-3-3
  interaction between 14-3-3 and ChREBPα (PLA): remained unchanged
ChREBPα; glucose + palmitate
  nuclear translocation of ChREBPα: preventing ChREBPα’s nuclear translocation
ChREBPα; high glucose
  nuclear translocation of ChREBPα: blocked the transient translocation of ChREBPα
[10]
  ChREBPα stabilization selectivity among 14-3-3 isoforms: preserved
INS-1 cells [11]
  calcium upregulation in response to glucose: no effect
PDX1 [12]
  PDX1 protein levels in glucolipotoxicity: rescued
INS-1 cells [2]
  Cytotoxic in low [glucose]: no cytotoxicity
[3]
  effect on other 14-3-3 client peptides (selectivity): without affecting any other client peptide
Primary human islets [13]
  SI in response to KCl: no effect
INS-1 cells [14]
  glucose-stimulated proliferation: prevented glucose-stimulated proliferation
ChREBPα/14-3-3β [4]
  Active in biochemical assays: active in biochemical assays
ChREBPα/14-3-3β [5]
  cooperativity factor (α): 72
Primary human islets [15]
  GSIS stimulation index, in words: improved glucose-stimulated insulin secretion (GSIS) stimulation index (SI)
Human islets, β-cells
  β-cell death in glucolipotoxic conditions, in words: remarkable decrease in β-cell death
INS-1 cells [16]
  ATP/ADP ratio: enhanced mitochondrial activity
ALDH1A3; high glucose or glucolipotoxicity
  ALDH1A3 mRNA: unaffected
ALDH1A3; low glucose
  ALDH1A3 mRNA: significantly decreased
[17]
  PPI stabilization with 14-3-3 isoforms: PPI stabilization among all isoforms
Primary human islets [18]
  insulin content: no effect
NFATC1/14-3-3
  14-3-3 dissociation from NFATC1 (PLA): glucose promoted 14-3-3 dissociation from NFATC1
ChREBPβ [19]
  upregulation of ChREBPβ at protein level: prevented upregulation of ChREBPβ
[20]
  other β-cell maturity markers or glucose sensing and processing genes: unchanged
INS-1 cells [6]
  Rescue from glucolipotoxicity: protected the β-cells from glucolipotoxicity
  cell death in glucolipotoxic conditions, dose response: significant attenuation of cell death
INS-1 cells [6]; 10 µM 43, kinetics over 72 h
  glucolipotoxic cell death in INS-1 cells: prevented

## NC(=O)c1ncn([C@@H]2O[C@H](CO)[C@@H](O)[C@H]2O)c1N [AICAR, reference compound]
ChREBPα; 1 mM AICAR
  nuclear translocation of ChREBPα: translocation of ChREBPα is not blocked

## O=C(COc1ccccc1P(=O)(O)O)NCCc1ccc(OCc2ccccn2)cc1 [compound 9]
ChREBPα/14-3-3β [4]
  EC50: 7.6 ± 0.5 µM
  stabilization of the ChREBPα/14-3-3 PPI, in words: increased the stabilization efficiency

## O=C(COc1ccccc1P(=O)(O)O)NCCc1ccc(OCc2ccncc2)cc1 [compound 11]
ChREBPα/14-3-3β [4]
  stabilization of the ChREBPα/14-3-3 PPI, in words: increased the stabilization efficiency

## O=C(COc1ccc(OP(=O)(O)O)cc1)NCCc1ccccc1 [compound 19]
ChREBPα/14-3-3β [4]
  EC50: 17.4 ± 3.2 µM
